Test results as given in patent US9120771B2, “Azetidine derivative and antidepressant composition including the same” (KOREA INSTITUTE OF SCIENCE AND TECHNOLOGY, priority 2011, dated 2015).
Counter-ions that a name gives are not always drawn. Like-named read-outs stand apart in the source and are kept apart here.

Assays:
[1] = target: T1, human serotonin transporter (Homo sapiens (Human), UniProt P31645); assay: hSERT binding assay ([3H]Imipramine); conditions: for inhibition at 10 µM: read-out: hSERT binding assay %-inhibition (10 uM);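 on all read-outs here: displacement of radiolabeled imipramine from the transporter, incubated 30 min at 27 °C in Tris-HCl pH 7.4 with NaCl and KCl, bound radioactivity counted after filtration, nonspecific binding defined with 200 uM imipramine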
[2] = target: T2, human norepinephrine transporter (Homo sapiens (Human), UniProt P23975); assay: hNET binding assay ([3H]Nisoxetine); conditions: membrane from MDCK cells; for inhibition at 10 µM: read-out: hNET binding assay %-inhibition (10 uM); for IC50: 6 nM [3H]Nisoxetine
Description: NE transporter binding assay for evaluating binding of the compound to the norepinephrine transporter was carried out using human recombinant norepinephrine transporter membrane (PerkinElmer Life and Analytical Sciences, USA) expressed in MDCK cells and radioisotope [^3H]Nisoxetine (PerkinElmer).
That is, the test drug, 6 nM [^3H]Nisoxetine, norepinephrine transporter membrane (11 ug/well), 120 mM NaCl and 50 mM Tris-HCl buffer (pH 7.4) containing 5 mM KCl were added to obtain a reaction mixture with a final volume of 0.25 ml. After incubation for 60 minutes at 4° C., the mixture was quickly passed through a Filtermat A glass fiber filter pre-soaked with 0.5% (w/v) PEI (polyethyleneimine) using Inotech Harvester (Inotech) to terminate the reaction. After washing with cold washing buffer (50 mM Tris-HCl, pH 7.4, 0.9% NaCl) solution, the filter was covered with MeltiLex and sealed in a sample bag. After drying in an oven, radioactivity was counted using MicroBeta Plus (Wallac).
Non-specific binding was measured in the presence of 1 uM desipramine. The IC50 value of the test drug was calculated from non-linear regression analysis (GraphPad Prism Program, San Diego, USA) of each %-inhibition value obtained from the drug with concentrations of 7th and 8th steps.

[3] = target: T3, human dopamine transporter (Homo sapiens (Human), UniProt Q01959); assay: hDAT binding assay ([3H]WIN35,428); conditions: for IC50: 8 nM [3H]WIN35,428; for inhibition at 10 µM: read-out: hDAT binding assay %-inhibition (10 uM);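 on all read-outs here: displacement of the radioligand from the transporter membranes, incubated 120 min at 4 °C in Tris-HCl buffer with NaCl, pH 7.4, measured by filter-bound radioactivity counting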
[4] = target: T1, human serotonin transporter; assay: hSERT reuptake assay (HEK-hSERT, FDSS6000); assay type: cell-based; conditions: HEK-hSERT cells
[5] = target: T2, human norepinephrine transporter; assay: hNET reuptake assay (HEK-hNET, FDSS6000); assay type: cell-based; conditions: HEK-hNET cells
[6] = target: T3, human dopamine transporter; assay: hDAT reuptake assay (HEK-hDAT, FDSS6000); assay type: cell-based; conditions: HEK-hDAT cells
[7] = 10 uM, membrane from HEK293 cells
[8] = membrane from HEK293 cells, 2 nM [3H]Imipramine
[9] = 10 uM, membrane from CHO-K1 cells

T2 sequence (P23975 whole entry): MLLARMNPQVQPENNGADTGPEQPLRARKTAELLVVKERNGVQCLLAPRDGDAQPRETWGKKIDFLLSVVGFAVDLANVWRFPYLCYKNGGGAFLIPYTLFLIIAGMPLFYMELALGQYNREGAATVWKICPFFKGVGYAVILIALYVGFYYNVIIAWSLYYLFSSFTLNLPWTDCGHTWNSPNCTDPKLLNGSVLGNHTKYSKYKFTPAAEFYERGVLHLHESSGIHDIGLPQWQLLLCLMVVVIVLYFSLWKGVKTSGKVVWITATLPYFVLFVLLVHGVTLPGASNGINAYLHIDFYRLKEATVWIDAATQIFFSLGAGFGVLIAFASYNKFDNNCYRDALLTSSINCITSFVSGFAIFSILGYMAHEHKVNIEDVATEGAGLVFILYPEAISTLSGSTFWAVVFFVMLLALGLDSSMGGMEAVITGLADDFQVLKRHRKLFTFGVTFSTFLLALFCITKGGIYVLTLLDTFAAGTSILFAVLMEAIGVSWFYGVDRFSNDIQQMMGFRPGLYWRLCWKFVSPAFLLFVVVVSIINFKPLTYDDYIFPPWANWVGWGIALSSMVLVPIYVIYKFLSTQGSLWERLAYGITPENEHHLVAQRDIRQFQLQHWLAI
T3 sequence (Q01959 whole entry): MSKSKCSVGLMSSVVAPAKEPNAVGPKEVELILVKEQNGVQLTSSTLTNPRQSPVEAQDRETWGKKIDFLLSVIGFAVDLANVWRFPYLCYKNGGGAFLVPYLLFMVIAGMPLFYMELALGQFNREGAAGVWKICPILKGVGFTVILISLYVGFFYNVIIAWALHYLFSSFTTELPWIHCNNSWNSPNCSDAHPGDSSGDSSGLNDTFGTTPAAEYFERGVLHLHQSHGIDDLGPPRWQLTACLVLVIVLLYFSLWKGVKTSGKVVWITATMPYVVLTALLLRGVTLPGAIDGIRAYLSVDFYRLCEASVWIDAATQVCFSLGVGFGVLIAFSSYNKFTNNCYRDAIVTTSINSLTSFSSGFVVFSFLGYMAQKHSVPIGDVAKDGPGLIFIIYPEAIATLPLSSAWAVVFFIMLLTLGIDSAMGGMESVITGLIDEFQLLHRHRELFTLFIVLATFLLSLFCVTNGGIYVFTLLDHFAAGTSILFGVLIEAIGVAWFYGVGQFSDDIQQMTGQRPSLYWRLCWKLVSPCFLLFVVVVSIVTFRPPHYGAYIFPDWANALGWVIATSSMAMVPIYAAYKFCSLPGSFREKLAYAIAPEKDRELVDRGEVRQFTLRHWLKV
T1 sequence (P31645 whole entry): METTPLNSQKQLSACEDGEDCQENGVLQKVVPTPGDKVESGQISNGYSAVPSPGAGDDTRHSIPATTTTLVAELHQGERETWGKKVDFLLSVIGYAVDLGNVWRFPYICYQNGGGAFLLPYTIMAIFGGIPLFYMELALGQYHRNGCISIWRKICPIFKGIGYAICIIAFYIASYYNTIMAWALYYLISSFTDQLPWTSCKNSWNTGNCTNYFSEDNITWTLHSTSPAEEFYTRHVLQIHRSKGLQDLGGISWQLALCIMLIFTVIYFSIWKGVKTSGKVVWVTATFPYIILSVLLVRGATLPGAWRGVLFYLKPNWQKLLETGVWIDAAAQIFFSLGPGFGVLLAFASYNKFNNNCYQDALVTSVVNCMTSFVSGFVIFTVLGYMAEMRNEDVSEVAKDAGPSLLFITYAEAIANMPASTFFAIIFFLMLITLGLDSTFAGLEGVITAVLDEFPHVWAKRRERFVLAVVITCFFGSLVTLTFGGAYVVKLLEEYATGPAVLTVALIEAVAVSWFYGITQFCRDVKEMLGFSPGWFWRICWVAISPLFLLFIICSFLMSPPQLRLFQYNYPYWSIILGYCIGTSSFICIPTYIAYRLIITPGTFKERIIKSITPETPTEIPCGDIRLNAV

SMILES	IC50 [1] [nM]	inhibition at 10 µM [1] [%]	inhibition at 10 µM [2] [%]	IC50 [2] [nM]	IC50 ([3]; membrane from CHO-K1 cells) [nM]	inhibition at 10 µM [3] [%]	IC50 ([4]; Table 3) [nM]	IC50 ([5]; Table 3) [nM]	IC50 ([6]; Table 3) [nM]	melting point [°C]	IC50 ([4]; Table 4) [nM]	IC50 ([5]; Table 4) [nM]	IC50 ([6]; Table 4) [nM]	inhibition at 10 µM [1, 7] [%]	IC50 [1, 8] [nM]	hSERT binding assay %-inhibition (10 uM) [1, 7] [%]	hNET binding assay %-inhibition (10 uM) [2] [%]	hDAT binding assay %-inhibition (10 uM) [3, 9] [%]	inhibition at 10 µM [3, 9] [%]
Cl.Clc1ccc(C(Oc2ccccc2)C2CNC2)cc1 (centres unmarked) [KHG26766, 3-((4-chlorophenyl)(phenoxy)methyl)azetidine hydrochloride]	9.2	98	90	90.2	227	94	40	40	150	191									
Cl.O=C(OC(c1ccccc1)C1CNC1)c1ccccc1 (centres unmarked) [KHG26771, azetidine-3-yl(phenyl)methyl benzoate hydrochloride]	402	92	54		1680	77				215									
CN1CC(C(Oc2ccccc2)c2ccc3ccccc3c2)C1 (centres unmarked) [KHG26907, 1-methyl-3-(naphthalene-2-yl(phenoxy)methyl)azetidine]											202	87.9	223						
c1ccc(OC(c2ccccc2)C2CNC2)cc1 (centres unmarked) [KHG26765, hydrochloride]			90	1660	857	87	50	40	380					98	112				
Cl.Clc1ccc(C(OCc2ccccc2)C2CNC2)cc1 (centres unmarked) [KHG26769, 3-((benzyloxy)(4-chlorophenyl)methyl)azetidine hydrochloride]			94	1340	290	84	1500	500	800	184				100	21.6				
COC(c1ccc(Cl)cc1)C1CNC1.Cl (centres unmarked) [KHG26753, 3-((4-chlorophenyl)(methoxy)methyl)azetidine hydrochloride]			52			58				281				95	42.9				
Cl.O=C(OC(c1ccc(Cl)cc1)C1CNC1)c1ccccc1 (centres unmarked) [KHG26772, azetidine-3-ly(4-chlorophenyl)methyl benzoate hydrochloride]				3480	319		2600	2500	1300						357	96	90	66	
CCCC(Oc1ccc2ccccc2c1)C1CNC1.Cl (centres unmarked) [KHG27284, 3-(1-(naphthalene-2-yloxy)butyl)azetidine hydrochloride]										77	8.55	79.5	710						
CC(C)(C)OC(c1ccc(Cl)c(Cl)c1)C1CNC1.Cl (centres unmarked) [KHG27252, 3-(tertiarybutoxy(3,4-dichlorophenyl)methyl)azetidine hydrochloride]										159.9	87	96	100						
Cl.Clc1ccc(C(OC2CCCCC2)C2CNC2)cc1Cl (centres unmarked) [KHG27255, 3-((cyclohexyloxy)(3,4-dichlorophenyl)methyl)azetidine hydrochloride]										189.4	58.4	14.2	54.8						
Cl.c1ccc(COC(c2ccccc2)C2CNC2)cc1 (centres unmarked) [KHG26768, 3-((benzyloxy)(phenyl)methyl)azetidine hydrochloride]			84	2300	985	90	4600	800	1900	185				97	82.9				
COC(c1ccc(Cl)c(Cl)c1)C1CNC1.Cl (centres unmarked) [KHG26756, 3-((3,4-dichlorophenyl)(methoxy)methyl)azetidine hydrochloride]			85	339		54				109				79	271				
Cl.Clc1ccc(C(OCc2ccccc2)C2CNC2)cc1Cl (centres unmarked) [KHG26770, 3-((benzyloxy)(3,4-dichlorophenyl)methyl)azetidine hydrochloride]			99	93.1	23.2	96	900	700	800	128				98	7.81				
Cl.Clc1ccc(C(OC2CCC2)C2CNC2)cc1Cl (centres unmarked) [KHG27253, 3-(cyclobutoxy(3,4-dichlorophenyl)methyl)azetidine hydrochloride]										166.1	25.6	11	33.4						
Cc1ccccc1OC(c1ccc(Cl)c(Cl)c1)C1CNC1.Cl (centres unmarked) [KHG26774, 3-((3,4-dichlorophenyl)(ortho-tolyloxy)methyl)azetidine hydrochloride]	11.6	100	100	25.8	119	96	800	2200	300	194									
Cl.O=C(OC(c1ccc(Cl)c(Cl)c1)C1CNC1)c1ccccc1 (centres unmarked) [KHG26773, azetidine-3-ly(3,4-dichlorophenyl)methyl benzoate hydrochloride]				214	241		900	1100	500						69.9	100	100	97	
Clc1ccc(C(Oc2ccccc2)C2CNC2)cc1Cl (centres unmarked) [KHG26767, 3-((3,4-dichlorophenyl)(phenoxy)methyl)azetidine hydrochloride]			100	5.5	68.8		50	30	60					98	4.3				94
Clc1ccc(C(OC2CCCC2)C2CNC2)cc1Cl (centres unmarked) [KHG27254, 3-((cyclopentyloxy)(3,4-dichlorophenyl)methyl)azetidine hydrochloride]											25.8	15.8	25.8						
